Measurements: patent US20210275581A1 (priority 2020, published 2021)

Tests used:
[1] = tested on: Streptococcus mutans Clark (ATCC); conditions: for minimal inhibitory concentration S. mutans: liquid culture, static growth, 37° C., 20 hours, 96 well microtiter plates
Method: (§1) Salmonella enterica Serovar typhimurium LT2, Staphylococcus aureus USA300 LAC, and Streptococcus mutans Clark (ATCC) were used for the experiment. […] S. enterica and S. aureus were cultured in Muller Hinton media (Sigma-Aldrich) and S. mutans was cultured in Reinforced Clostridial Media (Oxoid).
(§2) Single bacterial colonies were inoculated into 2 mL of medium in 10 mL capacity culture tubes. Inoculated cultures of S. aureus and S. enterica were grown aerobically at 37° C. with shaking at 200 rpm for 24 hours. S. mutans was cultured statically for 48 hours. […] MICs were determined in cultures grown in 96 well microtiter plates. 100 μL of the standardized culture was sub-cultured into wells containing 100 μL of medium containing antimicrobial compound. Control wells containing 200 μL of media only or media compound were used to standardize the data. The microtiter plates were aerobically incubated statically at 37° C. for 20 hours. Culture optical densities (A600) were determined using Biotek® EPOCH 2 microplate reader.
(§3) The ability of Zn and (CP)2ZnCl4 to inhibit the growth of bacterial pathogens was examined. The minimal inhibitory concentrations of Zn and (CP)2ZnCl4 were determined in liquid culture after static growth.

[2] = tested on: Staphylococcus aureus USA300 LAC; conditions: liquid culture, static growth, 37° C., 20 hours, 96 well microtiter plates
Method: as §1, §2, §3

[3] = tested on: Salmonella enterica Serovar typhimurium LT2; conditions: liquid culture, static growth, 37° C., 20 hours, 96 well microtiter plates
Method: as §1, §2, §3

| SMILES | minimal inhibitory concentration S. mutans [1] | antibacterial activity against S. mutans, compared to CPC ([1]; result in words, comparison with CPC) | MIC for Streptococcus mutans compared with zinc chloride or CPC ([1]; result in words, comparison with zinc chloride or CPC) | minimal inhibitory concentration S. aureus [2] | minimal inhibitory concentration S. enterica [3] |
| --- | --- | --- | --- | --- | --- |
| CCCCCCCCCCCCCCCC[n+]1ccccc1.CCCCCCCCCCCCCCCC[n+]1ccccc1.[Cl][Zn-2]([Cl])([Cl])[Cl] [(CP)2ZnCl4, cetylpyridinium tetrachlorozincate] | 6 µg/mL | slight improvement | lower than that of zinc chloride or CPC | 6 µg/mL | 60 µg/mL |
| [Cl-].[Cl-].[Zn+2] [ZnCl2, zinc chloride, reference compound] | ~65 µg/mL |  |  |  | ~300 µg/mL |
